Test results: patent publication US20060135393A1, “Mild cleansing composition” (KPSS-Kao Professional Salon Services GmbH, priority 2004, published 2006)

Tested on: male and female volunteers backs
Experiment: Occlusive multiple patch test for skin irritation potential (Hayes Chamber)
Assay type: in vivo, human
Conditions: shampoos diluted to 10% by weight in tap water; 25 μl per chamber; 3 applications, 72 hours total skin contact; visual scoring by dermatologist, 0 (no apparent cutaneous involvement) to 4 (severe erythema with edema)
Method: The above composition and the comparative compositions (see below) were tested for their skin irritation potential in an occlusive patch test using male and female volunteers backs aging 45+−14 years using Hayes Chamber with 25 μl volume. In detail, the shampoo compositions to be tested were diluted to a shampoo concentration of 10% by weight in tap water and homogeneously mixed. Using a laboratory calibrated pipette 25 μl of the solutions were filled into the chambers and the samples were patched onto the backs of the volunteers. The application was repeated 3 times (the duration of skin contact in total is 72 hours). After removal of the last patch (after 72 hrs), the application areas were evaluated visually by a dermatologist. The evaluation scores were as follows: [table] Such kind of tests are offered by several dermatological institutes or dermatologists having private clinics and the tests of the present invention were as well carried out in a dermatological institutes in Germany.

`CCCCCCCCCCCCOS(=O)(=O)[O-].[Na+]` [1% SDS* solution, sodium dodecyl sulfate] showed an Irritation score of 1.99.
